Experimental data from ChEMBL document CHEMBL1130964, “Naphthoquinone analogs as inactivators of cdc25 phosphatase” (1998).

How the values were obtained:
Assay type in all cases: functional
SK-HEP1 [1] = experiment: The compound was evaluated for the percent cell cycle fraction when human hepatoma SK hep-1 cells were treated with the compound for 0 hr at a concentration of 4 uM in the G1 phase of cell cycle
SK-HEP1 [2] = experiment: The compound was evaluated for the percent cell cycle fraction when human hepatoma SK hep-1 cells were treated with the compound for 24 hours at a concentration of 4 uM in the G2/M phase of cell cycle
Homo sapiens [3] = species: Homo sapiens; experiment: The compound was evaluated for the percent cell cycle fraction when human hepatoma SK hep-1 cells were treated with the compound for 0 hr at a concentration of 4 uM in the S phase of cell cycle
Homo sapiens [4] = species: Homo sapiens; experiment: The compound was evaluated for the percent cell cycle fraction when human hepatoma SK hep-1 cells were treated with the compound for 6 hours at a concentration of 4 uM in the G2/M phase of cell cycle
Homo sapiens [5] = species: Homo sapiens; experiment: The compound was evaluated for the percent cell cycle fraction when human hepatoma SK hep-1 cells were treated with the compound for 12 hours at a concentration of 4 uM in the S phase of cell cycle
SK-HEP1 [6] = experiment: The compound was evaluated for the percent cell cycle fraction when human hepatoma SK hep-1 cells were treated with the compound for 12 hours at a concentration of 4 uM in the G1 phase of cell cycle
SK-HEP1 [7] = experiment: The compound was evaluated for the percent cell cycle fraction when human hepatoma SK hep-1 cells were treated with the compound for 12 hours at a concentration of 4 uM in the G2/M phase of cell cycle
Homo sapiens [8] = species: Homo sapiens; experiment: The compound was evaluated for the percent cell cycle fraction when human hepatoma SK hep-1 cells were treated with the compound for 6 hours at a concentration of 4 uM in the G1 phase of cell cycle
SK-HEP1 [9] = experiment: The compound was evaluated for the percent cell cycle fraction when human hepatoma SK hep-1 cells were treated with the compound for 24 hours at a concentration of 4 uM in the S phase of cell cycle
SK-HEP1 [10] = experiment: The compound was evaluated for the percent cell cycle fraction when human hepatoma SK hep-1 cells were treated with the compound for 0 hr at a concentration of 4 uM in the G2/M phase of cell cycle
Homo sapiens [11] = species: Homo sapiens; experiment: The compound was evaluated for the percent cell cycle fraction when human hepatoma SK hep-1 cells were treated with the compound for 24 hours at a concentration of 4 uM in the G1 phase of cell cycle
SK-HEP1 [12] = experiment: The compound was evaluated for the percent cell cycle fraction when human hepatoma SK hep-1 cells were treated with the compound for 6 hours at a concentration of 4 uM in the S phase of cell cycle

O=C1C=CC(=O)c2c(O)c(Cl)c(Cl)c(O)c21
Cell cycle fraction (SK-HEP1 [1]): 48%
Cell cycle fraction (SK-HEP1 [2]): 16%
Cell cycle fraction (Homo sapiens [3]): 21%
Cell cycle fraction (Homo sapiens [4]): 26%
Cell cycle fraction (Homo sapiens [5]): 14%
Cell cycle fraction (SK-HEP1 [6]): 70%
Cell cycle fraction (SK-HEP1 [7]): 16%
Cell cycle fraction (Homo sapiens [8]): 54%
Cell cycle fraction (SK-HEP1 [9]): 13%
Cell cycle fraction (SK-HEP1 [10]): 31%
Cell cycle fraction (Homo sapiens [11]): 71%
Cell cycle fraction (SK-HEP1 [12]): 20%
